Data reported in patent US9045445B2, “Glycine transporter-1 inhibitors, methods of making them, and uses thereof” (Albany Molecular Research, Inc., priority 2010, dated 2015).
Where a name gives a salt, the structure may show the parent alone.

Target: T1, glycine transporter-1 (GlyT-1) (Homo sapiens, UniProt P48067)
T1 construct: JAR cells (ATCC#HTB-144), which endogenously express GlyT-1; host or cells: JAR human choriocarcinoma cells
T1 sequence (P48067 1-706): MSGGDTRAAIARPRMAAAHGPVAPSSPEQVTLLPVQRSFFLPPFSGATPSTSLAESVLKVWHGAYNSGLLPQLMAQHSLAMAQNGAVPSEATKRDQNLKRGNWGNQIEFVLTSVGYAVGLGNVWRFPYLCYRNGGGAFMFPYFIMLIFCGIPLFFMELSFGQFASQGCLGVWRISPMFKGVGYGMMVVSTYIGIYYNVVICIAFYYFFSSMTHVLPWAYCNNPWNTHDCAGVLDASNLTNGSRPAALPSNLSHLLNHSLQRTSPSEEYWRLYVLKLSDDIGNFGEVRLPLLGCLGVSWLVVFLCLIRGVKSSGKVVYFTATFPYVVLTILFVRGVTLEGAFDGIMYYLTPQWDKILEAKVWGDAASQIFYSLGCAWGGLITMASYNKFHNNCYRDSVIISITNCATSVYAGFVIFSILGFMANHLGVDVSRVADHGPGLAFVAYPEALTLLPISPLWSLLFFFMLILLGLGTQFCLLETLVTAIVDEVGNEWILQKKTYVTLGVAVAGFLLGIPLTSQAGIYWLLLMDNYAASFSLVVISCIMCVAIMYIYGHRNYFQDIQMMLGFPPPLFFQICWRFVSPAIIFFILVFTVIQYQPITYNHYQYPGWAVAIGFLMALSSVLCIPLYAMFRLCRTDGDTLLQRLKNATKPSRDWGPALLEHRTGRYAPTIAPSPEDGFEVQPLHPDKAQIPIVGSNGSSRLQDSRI
Assay: [14C]glycine uptake assay in JAR cells endogenously expressing GlyT-1 (scintillation proximity)
Format: cell-based
Settings: JAR cells, [14C]glycine 5 μM, 3 hour incubation; read-out: GlyT-1 IC50
Method: The inhibitory activity of compounds of the invention against the glycine transporter-1 (GlyT-1) can be determined by the following scintillation proximity assay. The potency of each compound was assessed in inhibiting the uptake of radiolabeled glycine ([^14C]glycine) using the human choriocarcinoma cell line, JAR cells (ATCC#HTB-144), which endogenously express GlyT-1. In brief, 50,000 JARS cells were plated per well of tissue culture treated 96-well Cytostar-T plate (PerkinElmer) in RPMI media supplemented with 10% heat inactivated FBS and allowed to attach overnight at 37° C. and 5% CO2. Compounds were serially diluted 3-fold in DMSO generating a nine (9) data point response curve for each compound. Two replicates were performed per determination. The compounds were then diluted into Uptake Buffer (10 mM Hepes, 120 mM NaCl, 2 mM KCl, 1 mM CaCl2 and 1 mM MgCl2, 5 mM Alanine, pH 7.4) with a final DMSO concentration of 0.75% (v/v). Following the overnight incubation, the media was replaced with Uptake Buffer in the presence or absence of diluted compound and pre-incubated at room temperature for 10 minutes prior to the addition of [^14C]glycine at a final concentration of 5 μM. Following a 3 hour incubation period at 37° C. and 5% CO2, the plates were sealed and placed at room temperature in the dark for 15 minutes prior to quantification of incorporated radioactivity using a MicroBeta Trilux scintillation plate reader (PerkinElmer). Data were fit into a four-parameter model to determine the inhibitor concentration at half-maximal response (IC50). The assay window was established by control wells incubated with [^14C]glycine in the presence or absence of 10 mM non-labeled glycine. A dose response curve for a synthesized reference standard was generated on every plate as a positive control.

| Structure (SMILES) | IC50 [nM] |
| --- | --- |
| CCCS(=O)(=O)N1CCN(C2(CNC(=O)c3c(C)cccc3OC)CCCCC2)CC1 [compound 3, 2-Methoxy-6-methyl-N-((1-(4-(propylsulfonyl)piperazin-1-yl)cyclohexyl)methyl) benzamide Hydrochloride] | 541 |
| CCCS(=O)(=O)N1CCN(C2(CNC(=O)c3ccc(F)cc3C)CCCCC2)CC1 [compound 10, 4-Fluoro-2-methyl-N-((1-(4-(propylsulfonyl)piperazin-1-yl)cyclohexyl)methyl) benzamide Hydrochloride] | 28 |
| CCCS(=O)(=O)N1CCN(C2(CNC(=O)c3c(F)cccc3F)CCCCC2)CC1 [compound 16, 2,6-Difluoro-N-((1-(4-(propylsulfonyl)piperazin-1-yl)cyclohexyl)methyl) benzamide Hydrochloride] | 23 |
| CCCS(=O)(=O)N1CCN(C2(CNC(=O)c3ccc(Cl)c(Cl)c3)CCCCC2)CC1 [compound 26, 3,4-Dichloro-N-((1-(4-(propylsulfonyl)piperazin-1-yl)cyclohexyl)methyl) benzamide Hydrochloride] | 245 |
| CCCS(=O)(=O)N1CCN(C2(CNC(=O)c3ccc(C)c(Cl)c3)CCCCC2)CC1 [compound 31, 3-Chloro-4-methyl-N-((1-(4-(propylsulfonyl)piperazin-1-yl)cyclohexyl)methyl) benzamide Hydrochloride] | 590 |
| CCCS(=O)(=O)N1CCN(C2(CNC(=O)c3ccc(C(C)C)cc3)CCCCC2)CC1 [compound 33, 4-Isopropyl-N-((1-(4-(propylsulfonyl)piperazin-1-yl)cyclohexyl)methyl) benzamide Hydrochloride] | 488 |
| CCCS(=O)(=O)N1CCN(C2(CNC(=O)c3ccccc3-c3ccccc3)CCCCC2)CC1 [compound 34, N-((1-(4-(Propylsulfonyl)piperazin-1-yl)cyclohexyl)methyl) biphenyl-2-carboxamide Hydrochloride] | 646 |
| CCCS(=O)(=O)N1CCN(C2(CNC(=O)c3ccc(C)c(C)c3)CCCCC2)CC1 [compound 35, 3,4-Dimethyl-N-((1-(4-(propylsulfonyl)piperazin-1-yl)cyclohexyl)methyl) benzamide Hydrochloride] | 1070 |
| CCCS(=O)(=O)N1CCN(C2(CNC(=O)c3cccc(C)c3)CCCCC2)CC1 [compound 37, 3-Methyl-N-((1-(4-(propylsulfonyl)piperazin-1-yl)cyclohexyl)methyl) benzamide Hydrochloride] | 1140 |
| CCCS(=O)(=O)N1CCN(C2(CNC(=O)c3ccccc3OC)CCCCC2)CC1 [compound 40, 2-Methoxy-N-((1-(4-(propylsulfonyl)piperazin-1-yl)cyclohexyl)methyl) benzamide Hydrochloride] | 629 |
| CCCS(=O)(=O)N1CCN(C2(CNC(=O)c3c(Cl)cccc3Cl)CCCCC2)CC1 [compound 43, 2,6-Dichloro-N-((1-(4-(propylsulfonyl)piperazin-1-yl)cyclohexyl)methyl) benzamide Hydrochloride] | 12 |
| CCCS(=O)(=O)N1CCN(C2(CNC(=O)c3ccc(C)cc3)CCCCCC2)CC1 [compound 57, 4-Methyl-N-((1-(4-(propylsulfonyl)piperazin-1-yl)cycloheptyl)methyl) benzamide Hydrochloride] | 887 |
| CCCS(=O)(=O)N1CCN(C2(CNC(=O)c3ccc(OC)cc3)CCCCCC2)CC1 [compound 67, 4-Methoxy-N-((1-(4-(propylsulfonyl)piperazin-1-yl)cycloheptyl)methyl) benzamide Hydrochloride] | 863 |
| CCCS(=O)(=O)N1CCN(C2(CNC(=O)c3ccc(Cl)cc3)CCCC2)CC1 [compound 73, 4-Chloro-N-((1-(4-(propylsulfonyl)piperazin-1-yl)cyclopentyl)methyl) benzamide Hydrochloride] | 1990 |

Results, then the compound that gave them:

| IC50 [nM] | Structure (SMILES) |
| --- | --- |
| 86 | CCS(=O)(=O)N1CCN(C2(CNC(=O)c3ccc(C(F)(F)F)cc3C(F)(F)F)CCC(F)(F)CC2)C(C)C1 (racemic) [compound 218, (±)-N-((1-(4-(Ethylsulfonyl)-2-methylpiperazin-1-yl)-4,4-difluorocyclohexyl)methyl)-2,4-bis(trifluoromethyl) benzamide Hydrochloride] |
| 68 | CC(O)CS(=O)(=O)N1CCN(C2(CNC(=O)c3ccc(C(F)(F)F)cc3Cl)CCC(F)(F)CC2)CC1 (single isomer, unassigned; enantiomer b) [compound 279, (Enantiomer B)-2-Chloro-N-((4,4-difluoro-1-(4-(2-hydroxypropylsulfonyl)piperazin-1-yl)cyclohexyl)methyl)-4-(trifluoromethyl) benzamide Hydrochloride] |
| 1820 | CCCS(=O)(=O)N1CCN(C2(CNC(=O)c3ccc(Cl)c(Cl)c3)CCCC2)CC1 [compound 76, 3,4-Dichloro-N-((1-(4-(propylsulfonyl)piperazin-1-yl)cyclopentyl)methyl) benzamide Hydrochloride] |
| 2440 | CCCS(=O)(=O)N1CCN(C2(CNC(=O)c3c(N)cccc3Cl)CCC2)CC1 [compound 78, 2-Amino-6-chloro-N-((1-(4-(propylsulfonyl)piperazin-1-yl)cyclobutyl)methyl) benzamide Hydrochloride] |
| 291 | CCCS(=O)(=O)N1CCN(C2(CNC(=O)c3ccccc3F)CCC(F)(F)CC2)CC1 [compound 131, N-((4,4-Difluoro-1-(4-(propylsulfonyl)piperazin-1-yl)cyclohexyl)methyl)-2-fluorobenzamide Hydrochloride] |
| 70 | CCCS(=O)(=O)N1CCN(C2(CNC(=O)c3ccccc3C)CCC(F)(F)CC2)CC1 [compound 134, N-((4,4-Difluoro-1-(4-(propylsulfonyl)piperazin-1-yl)cyclohexyl)methyl)-2-methylbenzamide Hydrochloride] |
| 195 | CCCS(=O)(=O)N1CCN(C2(CNC(=O)c3ccc(F)cc3F)CCC(F)(F)CC2)CC1 [compound 140, N-((4,4-Difluoro-1-(4-(propylsulfonyl)piperazin-1-yl)cyclohexyl)methyl)-2,4-difluorobenzamide Hydrochloride] |
| 158 | CCCS(=O)(=O)N1CCN(C2(CNC(=O)c3ccccc3OC(F)F)CCC(F)(F)CC2)CC1 [compound 142, N-((4,4-Difluoro-1-(4-(propylsulfonyl)piperazin-1-yl)cyclohexyl)methyl)-2-(difluoromethoxy) benzamide Hydrochloride] |
| 137 | CCCS(=O)(=O)N1CCN(C2(CNC(=O)c3ccc(Cl)cc3F)CCC(F)(F)CC2)CC1 [compound 143, 4-Chloro-N-((4,4-difluoro-l-(4-(propylsulfonyl)piperazin-1-yl)cyclohexyl)methyl)-2-fluorobenzamide Hydrochloride] |
| 46 | CCCS(=O)(=O)N1CCN(C2(CNC(=O)c3c(F)cc(F)cc3F)CCC(F)(F)CC2)CC1 [compound 144, N-((4,4-Difluoro-1-(4-(propylsulfonyl)piperazin-1-yl)cyclohexyl)methyl)-2,4,6-trifluorobenzamide Hydrochloride] |
| 52 | CCCS(=O)(=O)N1CCN(C2(CNC(=O)c3ccc(F)cc3C)CCC(F)(F)CC2)CC1 [compound 145, N-((4,4-Difluoro-1-(4-(propylsulfonyl)piperazin-1-yl)cyclohexyl)methyl)-4-fluoro-2-methylbenzamide Hydrochloride] |
| 30 | CCCS(=O)(=O)N1CCN(C2(CNC(=O)c3c(C)cccc3C)CCC(F)(F)CC2)CC1 [compound 146, N-((4,4-Difluoro-1-(4-(propylsulfonyl)piperazin-1-yl)cyclohexyl)methyl)-2,6-dimethylbenzamide Hydrochloride] |
| 31 | CCCS(=O)(=O)N1CCN(C2(CNC(=O)c3c(C)cccc3F)CCC(F)(F)CC2)CC1 [compound 147, N-((4,4-Difluoro-1-(4-(propylsulfonyl)piperazin-1-yl)cyclohexyl)methyl)-2-fluoro-6-methyl-benzamide Hydrochloride] |
